In the NIST ThermoML archive (doi:10.1016/j.jct.2014.12.020):

Assay: wn = mass fraction of the nth substance listed
Conditions: 100 kPa, Liquid; for mass density: Vibrating tube method; for viscosity: Concentric cylinders viscometry

CCC(=O)[O-].C[N+](C)(C)CCO [cholinium propanoate] + O
Conditions	mass density [kg/m3]	viscosity [mPa·s]
318.15 K, w2 = 0.003	1056.4	–
318.15 K, w2 = 0.01	1057	–
318.15 K, w2 = 0.021	1058.1	–
318.15 K, w2 = 0.025	1058.3	–
318.15 K, w2 = 0.046	1059.9	–
318.15 K, w2 = 0.064	1061.2	–
318.15 K, w2 = 0.1	1062.9	–
318.15 K, w2 = 0.127	1063.6	–
318.15 K, w2 = 0.208	1063.4	–
318.15 K, w2 = 0.262	1060.7	–
323.15 K, w2 = 0.003	1053.6	455.4
323.15 K, w2 = 0.01	1054.3	360
323.15 K, w2 = 0.021	1055.4	267.4
323.15 K, w2 = 0.025	1055.7	241.9
323.15 K, w2 = 0.046	1057.3	153.1
323.15 K, w2 = 0.064	1058.7	108
323.15 K, w2 = 0.1	1060.2	61.3
323.15 K, w2 = 0.127	1060.8	44.8
323.15 K, w2 = 0.208	1060.6	20.4
323.15 K, w2 = 0.262	1057.8	14.7
328.15 K, w2 = 0.003	1050.9	336.7
328.15 K, w2 = 0.01	1051.6	270
328.15 K, w2 = 0.021	1052.7	203.8
328.15 K, w2 = 0.025	1053	185.5
328.15 K, w2 = 0.046	1054.6	119.9
328.15 K, w2 = 0.064	1056	86
328.15 K, w2 = 0.1	1057.5	50
328.15 K, w2 = 0.127	1058	36.9
328.15 K, w2 = 0.208	1057.8	17.2
328.15 K, w2 = 0.262	1054.9	12.5
333.15 K, w2 = 0.003	1048.2	253.8
333.15 K, w2 = 0.01	1049	206.2
333.15 K, w2 = 0.021	1050.1	158.1
333.15 K, w2 = 0.025	1050.3	144.6
333.15 K, w2 = 0.046	1052.1	95.3
333.15 K, w2 = 0.064	1053.3	69.4
333.15 K, w2 = 0.1	1054.8	41.2
333.15 K, w2 = 0.127	1055.4	30.7
333.15 K, w2 = 0.208	1054.9	14.6
333.15 K, w2 = 0.262	1051.9	10.6
338.15 K, w2 = 0.003	1045.5	194.8
338.15 K, w2 = 0.01	1046.3	160.1
338.15 K, w2 = 0.021	1047.5	124.5
338.15 K, w2 = 0.025	1047.8	114.4
338.15 K, w2 = 0.046	1049.4	76.7
338.15 K, w2 = 0.064	1050.7	56.7
338.15 K, w2 = 0.1	1052.1	34.3
338.15 K, w2 = 0.127	1052.6	25.8
338.15 K, w2 = 0.208	1052	12.5
338.15 K, w2 = 0.262	1048.9	9.3
343.15 K, w2 = 0.003	1042.9	151.9
343.15 K, w2 = 0.01	1043.7	126.2
343.15 K, w2 = 0.021	1044.8	99.3
343.15 K, w2 = 0.025	1045.1	91.8
343.15 K, w2 = 0.046	1046.7	62.5
343.15 K, w2 = 0.064	1047.9	46.8
343.15 K, w2 = 0.1	1049.3	28.8
343.15 K, w2 = 0.127	1049.7	21.9
343.15 K, w2 = 0.208	1049.1	10.8
343.15 K, w2 = 0.262	1045.8	8.1
